Here are results for 18 compounds from US7507860B2 (Pfizer Inc., priority 2004, dated 2009).

Usually IC50 stands for the concentration needed to halve the response being measured.

The structures appear in SMILES notation. Residue numbers refer to the chain shown, from its start.

The target of one test is T1, androgen receptor (Homo sapiens, UniProt P10275).
T1 sequence (P10275 1-920 Q868H): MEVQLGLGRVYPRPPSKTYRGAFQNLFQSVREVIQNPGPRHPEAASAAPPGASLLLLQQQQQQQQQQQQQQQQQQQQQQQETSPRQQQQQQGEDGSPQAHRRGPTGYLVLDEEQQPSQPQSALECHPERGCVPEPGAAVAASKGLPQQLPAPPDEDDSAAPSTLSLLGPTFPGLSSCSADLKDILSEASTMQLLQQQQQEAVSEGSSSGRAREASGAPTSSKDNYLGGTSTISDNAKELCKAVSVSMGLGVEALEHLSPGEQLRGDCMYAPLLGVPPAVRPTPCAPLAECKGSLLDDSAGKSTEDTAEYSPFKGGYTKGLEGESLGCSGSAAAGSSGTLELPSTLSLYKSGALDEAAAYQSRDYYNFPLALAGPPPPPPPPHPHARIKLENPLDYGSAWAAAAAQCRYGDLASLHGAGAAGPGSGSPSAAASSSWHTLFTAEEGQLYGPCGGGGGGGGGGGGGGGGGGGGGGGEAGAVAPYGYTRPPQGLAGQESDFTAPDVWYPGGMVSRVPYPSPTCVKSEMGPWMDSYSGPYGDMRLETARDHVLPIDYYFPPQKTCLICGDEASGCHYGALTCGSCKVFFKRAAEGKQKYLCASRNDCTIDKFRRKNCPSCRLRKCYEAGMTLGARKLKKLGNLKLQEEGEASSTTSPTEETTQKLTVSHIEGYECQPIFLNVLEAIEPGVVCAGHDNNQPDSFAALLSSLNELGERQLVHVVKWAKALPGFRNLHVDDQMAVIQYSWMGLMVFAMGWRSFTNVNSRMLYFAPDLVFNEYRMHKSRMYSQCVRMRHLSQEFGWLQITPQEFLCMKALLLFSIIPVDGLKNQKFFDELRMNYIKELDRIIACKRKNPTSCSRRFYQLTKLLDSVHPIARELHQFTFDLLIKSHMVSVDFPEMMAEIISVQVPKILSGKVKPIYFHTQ
The experiment in a line: AR antagonist cell assay (MDA-MB453-MMTV clone 54-19 luciferase reporter, 100 pM DHT). The class given is cell-based. Conditions: MDA-MB453-MMTV clone 54-19, inhibition of 100 pM DHT induction, 17 hr; mean of multiple tests; read-out: AR Cell IC50. The method, then:
The compounds ability to antagonize the effects of androgen on the androgen receptor were determined in a whole cell assay as described immediately below.
Experimental Procedure for AR Antagonist Cell Assay
This cell line is a stable transfected cell line with MDA-MB453 cell background (a human breast tumor cell line expressing androgen receptor). A MMTV minimal promoter containing ARE was first cloned in front of a firefly luciferase reporter gene. Then the cascade was cloned into transfection vector pUV120puro. […] Puromycin resistant stable cell line was selected. Cell Culture Media and Reagents:
Plating medium: DMEM (phenol red free), 10% charcoal treated HyClone serum, 1% L-glutamine
Assay medium: DMEM (phenol red free), 1% charcoal treated HyClone serum, 1% L-glutamine, and 1% penicillin/streptomycin
• 1. Cells are maintained in culture medium, splitting cells when they reach 80-90% confluence • 2. To test compounds, 10,000 cells/well are plated to opaque 96 cell culture plate in 100 ul/well plating medium, culture for overnight at 37° C. in cell culture incubator • 3. […] Add 10 ul/well freshly prepared DHT (final concentration at 100 pM) to each well, incubate at 37° C. for 17 hr (overnight) • 5.
The results are reported as the mean of multiple tests as described below (the numbers of tests are indicated in the footnote). N.D. denotes that the compound was not tested.

Test [1] has as its target T2, human androgen receptor (hAR) (Homo sapiens, UniProt P10275).
T2 construct: made in house; host or cells: baculovirus/Sf9 insect cells (crude extract)
T2 sequence (P10275 1-920): T1 sequence (P10275 1-920 Q868H) with H868Q
Put plainly: Competitive binding analysis on baculovirus/Sf9 generated hAR extracts with 3H-DHT tracer. Conditions: hAR extract, 1 nM 3H-DHT, one hour at 4° C; mean of multiple tests; read-out: AR Binding IC50. The method, then:
The compounds of Formula I have affinity for the androgen receptor. […] The description below describes how the assay was carried out.
Competitive binding analysis was performed on baculovirus/Sf9 generated hAR extracts in the presence or absence of different concentrations of test agent and a fixed concentration of ^3H-dihydrotestosterone (^3H-DHT) as tracer. This binding assay method is a modification of a protocol previously described (Liao S., et. al. J. Steroid Biochem. 20:11-17 1984). Briefly, progressively decreasing concentrations of compounds are incubated in the presence of hAR extract (Chang et al. P.N.A.S. Vol. 89, pp. […], 1992), hydroxylapatite, and 1 nM^3H-DHT for one hour at 4° C. Subsequently, the binding reactions are washed three times to completely remove excess unbound ^3H-DHT. hAR bound ^3H-DHT levels are determined in the presence of compounds (=i.e competitive binding) and compared to levels bound when no competitor is present (=i.e. maximum binding). Compound binding affinity to the hAR is expressed as the concentration of compound at which one half of the maximum binding is inhibited. Table II below provides the results that were obtained for selected compounds (reported data is the mean of multiple tests as shown below)

With `CCC[C@H](Oc1ccc(C#N)c(C(F)(F)F)c1)C(=O)NCc1cccc(C)c1` [Example 107, (S)-2-(4-Cyano-3-trifluoromethyl-phenoxy)-pentanoic acid-3-methyl-benzylamide], the IC50 on androgen receptor was below 0.32 nM; in test [1], 93 nM.

With `CC(C)CC(Oc1ccc(C#N)c(C(F)(F)F)c1)C(=O)NCc1ccco1` (stereo not drawn) [Example 11, 2-(4-Cyano-3-trifluoromethyl-phenoxy)-4-methyl-pentanoic acid (furan-2-yl-methyl)-amide], the IC50 on androgen receptor was above 1000 nM; in test [1], 172 nM.

`CCC[C@H](Oc1ccc(C#N)c(C(F)(F)F)c1)C(=O)NCCc1ccc(O)cc1` [Example 109]: the IC50 came to 58 nM on androgen receptor and 251 nM in test [1].

`CC(C)CC(Oc1ccc(C#N)c(C(F)(F)F)c1)C(=O)NCc1ccc2nsnc2c1` (stereo not drawn) [Example 26, 2-(4-Cyano-3-trifluoromethyl-phenoxy)-4-methyl-pentanoic acid (benzo[1,2,5]thiadiazol-5-yl-methyl)-amide]: the IC50 on androgen receptor is above 1000 nM; in test [1], 67 nM.

Regarding `CC(C)CC(Oc1ccc(C#N)c(C(F)(F)F)c1)C(=O)N[C@@H](C)c1ccc(O)cc1` (stereo in doubt) [Example 120, 2-(4-Cyano-3-trifluoromethyl-phenoxy)-4-methyl-pentanoic acid [1-(4-hydroxy-phenyl)-ethyl]-amide], the IC50 at androgen receptor was 44 nM; in test [1] it was 98 nM.

For the compound `CC(C)CC(Oc1ccc(C#N)c(C(F)(F)F)c1)C(=O)NCc1ccc(O)c(O)c1` (stereo not drawn) [Example 74, 2-(4-Cyano-3-trifluoromethyl-phenoxy)-4-methyl-pentanoic acid-3,4-dihydroxy-benzylamide], the IC50 is 976 nM at androgen receptor and 139 nM in test [1].

For the compound `CCCOCCNC(=O)C(CC(C)C)Oc1ccc(C#N)c(C(F)(F)F)c1` (stereo not drawn) [Example 81, 2-(4-Cyano-3-trifluoromethyl-phenoxy)-4-methyl-pentanoic acid (2-propoxy-ethyl)amide], the figures for the IC50 (on androgen receptor; in test [1]) were above 1000 nM and 142 nM, respectively.

For the compound `CCCC(Oc1ccc(C#N)c(C(F)(F)F)c1)C(=O)N[C@H](C)c1ccc(O)cc1` (stereo in doubt) [Example 119, 2-(4-Cyano-3-trifluoromethyl-phenoxy)-pentanoic acid [1-(4-hydroxy-phenyl)-ethyl]-amide], the figures for the IC50 (at androgen receptor; in test [1]) were 117 nM and 86 nM, respectively.

On to `CCCC(Oc1ccc(C#N)c(C(F)(F)F)c1)C(=O)NCc1ccccc1OC` (stereo not drawn) [Example 41, 2-(4-Cyano-3-trifluoromethyl-phenoxy)-pentanoic acid-2-methoxy-benzylamide], for which the IC50 at androgen receptor is 130 nM; in test [1] it was 171 nM.

For the compound `CCC[C@H](Oc1ccc(C#N)c(C(F)(F)F)c1)C(=O)NCCc1c[nH]c2ccccc12` [Example 108, (S)-2-(4-Cyano-3-trifluoromethyl-phenoxy)-pentanoic acid [2-(1H-indol-3-yl)ethyl]-amide], the figures for the IC50 (on androgen receptor; in test [1]) were below 0.32 nM and 21 nM, respectively.

Consider `CCCC(Oc1ccc(C#N)c(C(F)(F)F)c1)C(=O)NCc1cccc(C)c1` (stereo not drawn) [Example 43, 2-(4-Cyano-3-trifluoromethyl-phenoxy)-pentanoic acid-3-methyl-benzylamide], for which the IC50 was found to be 105 nM on androgen receptor and 99 nM in test [1].

Turning to `COc1ccc(CCNC(=O)C(CC(C)C)Oc2ccc(C#N)c(C(F)(F)F)c2)cc1` (stereo not drawn) [Example 34, 2-(4-Cyano-3-trifluoromethyl-phenoxy)-4-methyl-pentanoic acid [2-(4-methoxyphenyl)-ethyl]amide], the IC50 at androgen receptor was above 1000 nM; in test [1], 68 nM.

With `CCCC(Oc1ccc(C#N)c(C(F)(F)F)c1)C(=O)NCCOc1ccccc1` (stereo not drawn) [Example 56, 2-(4-Cyano-3-trifluoromethyl-phenoxy)-pentanoic acid-(2-phenoxy-ethyl)-amide], the IC50 stood at 790 nM at androgen receptor and 157 nM in test [1].

On to `CCCC(Oc1ccc(C#N)c(C(F)(F)F)c1)C(=O)NCc1ccc2c(c1)CCO2` (stereo not drawn) [Example 30, 2-(4-Cyano-3-trifluoromethyl-phenoxy)-pentanoic acid (2,3-dihydro-benzofuran-5-yl-methyl)-amide], for which the IC50 at androgen receptor came to 355 nM; in test [1] it was 134 nM.

Turning to `CC(C)CC(Oc1ccc(C#N)c(C(F)(F)F)c1)C(=O)NCC1CC1` (stereo not drawn) [Example 7, 2-(4-Cyano-3-trifluoromethyl-phenoxy)-4-methyl-pentanoic acid cyclopropylmethyl-amide], the IC50 is 661 nM at androgen receptor and 107 nM in test [1].

As for `CC(C)CC(Oc1ccc(C#N)c(C(F)(F)F)c1)C(=O)NCc1cccnc1` (stereo not drawn) [Example 19, 2-(4-Cyano-3-trifluoromethyl-phenoxy)-4-methyl-pentanoic acid (pyridin-3-yl-methyl)-amide], the IC50 was above 1000 nM at androgen receptor and 131 nM in test [1].

As to `CC(C)CC(Oc1ccc(C#N)c(C(F)(F)F)c1)C(=O)NC(C)C` (stereo not drawn) [Example 2, 2-(4-Cyano-3-trifluoromethyl-phenoxy)-4-methyl-pentanoic acid isopropylamide], the IC50 came to 142 nM on androgen receptor and 64 nM in test [1].

As to `CCCC(Oc1ccc(C#N)c(C(F)(F)F)c1)C(=O)NCc1ccccc1OCC` (stereo not drawn) [Example 42, 2-(4-Cyano-3-trifluoromethyl-phenoxy)-pentanoic acid-2-ethoxy-benzylamide], the figures for the IC50 (at androgen receptor; in test [1]) were above 1000 nM and 139 nM, respectively.
